# Assay results reported in ChEMBL document CHEMBL1201862, “PubChem BioAssay data set” (2004).
#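 48-hour exposure; five concentrations; linearly interpolated endpoints. At the GI50, growth is halved.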 Calls of active or inactive are those of the source. Cut-off read from the data, not from the text of the source: active = GI50 up to about 1.1 µM and inactive = higher.
# Tests used:
# Assay in all cases: DTP human tumour cell line panel, 48 h
# [1] = system: DMS-114
# [2] = system: A549
# [3] = system: EKVX
# [4] = system: SK-MEL-28
# [5] = system: LXFL 529
# [6] = system: LOX IMVI
# [7] = system: ACHN
# [8] = system: SNB-78
# [9] = system: SN12C
# [10] = system: HL-60
# [11] = system: SK-MEL-5
# [12] = system: 786-0
# [13] = system: HCT-15
# [14] = system: HOP-62
# [15] = system: NCI-H522
# [16] = system: OVCAR-3
# [17] = system: HT-29
# [18] = system: SF-295
# [19] = system: RPMI-8226
# [20] = system: UACC-62
# [21] = system: XF498
# [22] = system: SK-MEL-2
# [23] = system: SR
# [24] = system: M14
# [25] = system: SNB-75
# [26] = system: M19-MEL
# [27] = system: U-251
# [28] = system: IGROV-1
# [29] = system: OVCAR-5
# [30] = system: COLO 205
# [31] = system: HCC 2998
# [32] = system: RXF 393
# [33] = system: SF-268
# [34] = system: Malme-3M
# [35] = system: SF-539
# [36] = system: OVCAR-8
# [37] = system: MOLT-4
# [38] = system: SNB-19
# [39] = system: KM-20L2
# [40] = system: KM12
# [41] = system: OVCAR-4
# [42] = system: UO-31
# [43] = system: HCT-116
# [44] = system: SW-620
# [45] = system: NCI-H23
# [46] = system: K562
# [47] = system: CCRF-CEM
# [48] = system: TK-10
# [49] = system: NCI-H460
# [50] = system: DMS-273
# [51] = system: HOP-18
# [52] = system: UACC-257
# [53] = system: HOP-92
# [54] = system: CAKI-1
# [55] = system: NCI-H226
# [56] = system: DLD-1
# [57] = system: SK-OV-3
smiles,measurement,setting,value
O=C1CCC(=O)N1Cc1ccccc1/N=[N+](\[O-])c1ccccc1CN1C(=O)CCC1=O,GI50,[1],> 100 µM (inactive)
same,GI50,[2],> 100 µM (inactive)
same,GI50,[3],> 100 µM (inactive)
same,GI50,[4],> 100 µM (inactive)
same,GI50,[5],> 100 µM (inactive)
same,GI50,[6],> 100 µM (inactive)
same,GI50,[7],> 100 µM (inactive)
same,GI50,[8],> 100 µM (inactive)
same,GI50,[9],> 100 µM (inactive)
same,GI50,[10],> 100 µM (inactive)
same,GI50,[11],> 100 µM (inactive)
same,GI50,[12],> 100 µM (inactive)
same,GI50,[13],> 100 µM
same,GI50,[14],> 100 µM (inactive)
same,GI50,[15],> 100 µM (inactive)
same,GI50,[16],> 100 µM (inactive)
same,GI50,[17],> 100 µM (inactive)
same,GI50,[18],> 100 µM (inactive)
same,GI50,[19],> 100 µM (inactive)
same,GI50,[20],> 100 µM (inactive)
same,GI50,[21],> 100 µM (inactive)
same,GI50,[22],> 100 µM (inactive)
same,GI50,[23],> 100 µM (inactive)
same,GI50,[24],> 100 µM (inactive)
same,GI50,[25],10.2 µM (inactive)
same,GI50,[26],> 100 µM (inactive)
same,GI50,[27],> 100 µM (inactive)
same,GI50,[28],> 100 µM (inactive)
same,GI50,[29],> 100 µM (inactive)
same,GI50,[30],> 100 µM (inactive)
same,GI50,[31],> 100 µM (inactive)
same,GI50,[32],> 100 µM (inactive)
same,GI50,[33],> 100 µM (inactive)
same,GI50,[34],> 100 µM (inactive)
same,GI50,[35],> 100 µM (inactive)
same,GI50,[36],> 100 µM (inactive)
same,GI50,[37],> 100 µM (inactive)
same,GI50,[38],> 100 µM (inactive)
same,GI50,[39],> 100 µM (inactive)
same,GI50,[40],> 100 µM (inactive)
same,GI50,[41],> 100 µM (inactive)
same,GI50,[42],> 100 µM (inactive)
same,GI50,[43],> 100 µM (inactive)
same,GI50,[44],> 100 µM (inactive)
same,GI50,[45],> 100 µM (inactive)
same,GI50,[46],> 100 µM (inactive)
same,GI50,[47],> 100 µM (inactive)
same,GI50,[48],> 100 µM (inactive)
same,GI50,[49],> 100 µM (inactive)
same,GI50,[50],> 100 µM (inactive)
O=[N+]([O-])c1cc(Cl)ccc1S(=O)(=O)c1ccc(Cl)cc1[N+](=O)[O-],GI50,[1],11.3 µM (inactive)
same,GI50,[2],25.4 µM (inactive)
same,GI50,[4],18.1 µM (inactive)
same,GI50,[51],16.7 µM (inactive)
same,GI50,[5],14.1 µM (inactive)
same,GI50,[6],16.1 µM (inactive)
same,GI50,[7],16.1 µM (inactive)
same,GI50,[8],16.1 µM (inactive)
same,GI50,[9],15.7 µM (inactive)
same,GI50,[10],19.9 µM (inactive)
same,GI50,[52],13.5 µM (inactive)
same,GI50,[11],14.6 µM (inactive)
same,GI50,[12],15.5 µM (inactive)
same,GI50,[13],17.3 µM
same,GI50,[14],21.3 µM (inactive)
same,GI50,[15],16.1 µM (inactive)
same,GI50,[16],17.3 µM (inactive)
same,GI50,[17],16.8 µM (inactive)
same,GI50,[18],15.1 µM (inactive)
same,GI50,[19],29.6 µM (inactive)
same,GI50,[20],16.9 µM (inactive)
same,GI50,[22],18 µM (inactive)
same,GI50,[23],4.19 µM (inactive)
same,GI50,[24],16.7 µM (inactive)
same,GI50,[53],18.5 µM (inactive)
same,GI50,[25],15.7 µM (inactive)
same,GI50,[26],15 µM (inactive)
same,GI50,[54],19.7 µM (inactive)
same,GI50,[55],12.4 µM (inactive)
same,GI50,[27],19.8 µM (inactive)
same,GI50,[28],15.9 µM (inactive)
same,GI50,[29],19.5 µM (inactive)
same,GI50,[30],17 µM (inactive)
same,GI50,[32],15.1 µM (inactive)
same,GI50,[33],15 µM (inactive)
same,GI50,[34],13.5 µM (inactive)
same,GI50,[35],18 µM (inactive)
same,GI50,[36],16 µM (inactive)
same,GI50,[37],25 µM (inactive)
same,GI50,[38],17.4 µM (inactive)
same,GI50,[39],16.7 µM (inactive)
same,GI50,[40],14.2 µM (inactive)
same,GI50,[41],17.9 µM (inactive)
same,GI50,[42],17.1 µM (inactive)
same,GI50,[43],15.7 µM (inactive)
same,GI50,[44],18.5 µM (inactive)
same,GI50,[45],15.2 µM (inactive)
same,GI50,[46],28.2 µM (inactive)
same,GI50,[56],15.6 µM (inactive)
same,GI50,[47],24.1 µM (inactive)
same,GI50,[48],17.6 µM (inactive)
same,GI50,[49],16.1 µM (inactive)
same,GI50,[50],14.2 µM (inactive)
same,GI50,[57],15.8 µM (inactive)
